{"source": "patent US20260272998A1", "about": "“CHEMICALLY-MODIFIED MICROORGANISM CONTAINING A SUPEROXIDE DISMUTASE MIMIC INORGANIC COMPLEX AND USE THEREOF FOR TREATING INFLAMMATORY DISEASES” (INSTITUT NATIONAL DE RECHERCHE POUR L'AGRICULTURE, …, priority 2023, published 2026)", "key": {"[1]": {"conditions": "McCord and Fridovich assay; cited from earlier work"}, "[2]": {"test_system": "DBNS-induced colitis murine model", "conditions": "administered orally in a carbonate buffer; cited from earlier work"}, "[3]": {"test_system": "Lactobacillus plantarum MD007 strain", "description": "The Lactobacillus plantarum MD007 strain is grown in MRS containing D-alanine (200 μg/mL) at 37° C.\nAn overnight culture is used to inoculate fresh medium in order to get an OD600 nm of 0.2, and cells are grown to an OD600 nm of 0.7 and are washed three times D-alanine free MRS medium. The washed bacteria are incubated in medium without D-alanine for 3 h at 37° C. before SOD mimic loading. After alanine starvation, the bacteria are washed three times with Hepes (0.1 M, pH 7.4) to reach a concentration about 10^9 bacteria per 200 μL.\nAfter removal of the culture medium supernatant, bacteria are incubated with Hepes (0.1 M, pH 7.4) only, or with the tested compounds (Mn1 or Mn1C) at the desired concentration in the same buffer for two or twenty-four hours, at 37° C. Mn1C, Mn1 solutions are prepared extemporaneously to prevent degradation and manganese oxidation reactions. After cultures centrifugation and washing with Hepes (0.1 M, pH 7.4), the bacteria are resuspended in Hepes 0.1 M containing 16% glycerol to reach a concentration about 10^9 bacteria per 200 μL. […]\nTo assess bacteria viability, the overnight culture and the frozen vials are controlled by CFU (colony forming unit) test by diluting the preparation in PBS by serial 1/10 dilution and plating a known volume of the dilutions on the corresponding medium. […] Colonies are then counted by visual observation."}, "[4]": {"test_system": "intestinal epithelial cells and macrophages", "conditions": "cited from earlier work"}}, "note": "Entries after “also recorded” stand apart in the source; their conditions may differ.", "data": [{"smiles": "Cn1ccnc1CNCCN(Cc1ccccc1O)Cc1nccn1C.[Mn+2]", "note": "[Mn1]", "values": [{"measurement": "kcat for superoxide dismutation", "setting": "[1]", "value": "7.10^6 M^−1·s^−1"}, {"measurement": "anti-inflammatory activity in DNBS-induced colitis (weight variation, macroscopic scores)", "setting": "[2]", "value": "exert an intracellular anti-inflammatory activity in vivo; also recorded: ameliorates DNBS-induced colitis"}, {"measurement": "cell viability of loaded bacteria (CFU)", "setting": "[3]", "value": "does not affect cell viability"}, {"measurement": "antioxidant and anti-inflammatory effects on cells", "setting": "[4]", "value": "antioxidant and anti-inflammatory effects"}]}]}
